# Laboratory results as given in patent US7807673B2, “2-pyrimidinyl pyrazolopyridine ErbB kinase inhibitors” (GlaxoSmithKline LLC, priority 2005, dated 2010).
# Experiments:
# ErbB2 or EGFR = biological target: T1, ErbB2 or EGFR; assay: ErbB enzyme substrate phosphorylation assay (HTRF), Method B (enzyme pre-incubated with compound 1 hour); assay type: biochemical; conditions: Table 1, enzyme Method B: enzyme mix incubated with compound 1 hour at 20° C., reaction started with substrate mix; class over ErbB2 or EGFR
# T1 construct: enzymes purified from a baculovirus expression system
# Experimental: Compounds of the present invention were tested for EGFR, ErbB-2, and ErbB-4 protein tyrosine kinase inhibitory activity in substrate phosphorylation assays using enzymes purified from a baculovirus expression system. Reagent production was conducted essentially as described in Brignola, P. S., et al, (2002) J. Biol. Chem. 277(2): 1576-1585.
# The method measures the ability of the isolated enzyme to catalyse the transfer of the gamma-phosphate from ATP onto the tyrosine residue of a biotinylated synthetic peptide referenced “Peptide C” in Brignola, P. S., et al, (2002) J. Biol. Chem. 277(2):1576-1585. The extent of tyrosine phosphorylation was measured using an anti-phosphotyrosine antibody, and quantified by homogenous time-resolved fluorescence (HTRF).
# Reactions were performed in black 384-well polystyrene flat-bottom plates in a final volume of 20 μl. Assays were performed by adding 10 μl of each of the following solutions, substrate Mix and enzyme mix: The Substrate mix contained 100 mM 3-[N-morpholino]propanesulfonic acid (MOPS) (pH 7.5), 2 mM MnCl2, 20 μM ATP, 0.01% Tween-20, 0.1 mg/mL (BSA), 0.8 uM peptide substrate, and 1 mM dithiothreitol. The enzyme mix contained 100 mM MOPS (pH7.5); 0.01% Tween-20; 0.1 mg/mL BSA, and either 0.8 nM EGFR, 10 nM ErbB2, or 1 nM ErbB4
# During the course of these studies, two separate methods have been used to measure the potency of compounds. In Method A, the substrate mix was added to the compound plates first, then the reaction was started by adding the enzyme mix. In Method B, the enzyme mix was added to the compound plates and the plates were incubated at 20° C. for 1 hour. The reactions were then started by adding the substrate mix.
# After initiating the reaction with either method describe above, the reactions were allowed to proceed for 90 minutes at 20° C. The reactions were then terminated by the addition of 20 μl 100 mM EDTA to each well. 40 μl/well of HTRF detection mix were added to the assay plates. The final concentrations of the detection reagents were: 100 mM HEPES (pH7.5), 0.1 mg/mL BSA, 15 nM streptavidin-labeled allophycocyanin (PerkinElmer), and 1 nM europium-labeled anti-phosphotyrosine antibody (PerkinElmer). Assay plates were left unsealed and were counted in a Wallac Multilabel Counter 1420 (PerkinElmer).
# Compounds under analysis were dissolved in Me2SO to 1.0 mM and serially diluted 1 to 3 with Me2SO through twelve dilutions. 1 μl of each concentration was transferred to the corresponding well of an assay plate. This creates a final compound concentration range from 0.00027 to 47.6 μM.
# The data for dose responses were plotted as % Inhibition calculated with the data reduction formula 100*(1−(U1−C2)/(C1−C2)) versus concentration of compound where U is the unknown value, C1 is the average control value obtained for 4.76% DMSO, and C2 is the average control value obtained for 0.035 M EDTA. Data were fitted with a curve described by: y=((Vmax*x)/(K+x))+Y2 where Vmax is the upper asymptote, Y2 is the Y intercept, and K is the IC50. The results for each compound were recorded as pIC50s, calculated as follows: pIC50=−Log 10(K)
# [1] = test system: BT474 and HN5 tumor cell lines; assay: Celltiter Glo growth inhibition assay (cellular Method B); assay type: cell-based; conditions: Homo sapiens, BT-474, 72 h; Table 2, Method B Celltiter Glo, 3 days; class over BT474 and HN5;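 also: class counts the more potent of the two cell lines (BT474 or HN5)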
# Experimental: (§1) Human breast tumor cells (BT474) were cultured in RPMI, (Invitrogen, 22400) containing 10% fetal bovine serum (FBS). Human head and neck tumor cells (HN5) were cultured in low glucose DMEM (Invitrogen, 12320) containing 10% FBS. Human colon tumor cells (Colo205) were cultured in DMEM (Invitrogen, 10564) containing 10% FBS. All cell lines were maintained at 37° C. in a humidified 5% CO2, 95% air incubator. Cells were harvested using trypsin/EDTA, counted using a haemocytometer, and plated in 30 microliters of the appropriate media described above, at the following densities, in a half area, black-walled, 96-well tissue culture plate (Corning 3882): BT474 3,000 cells/well, HN5 500 cells/well and Colo205 cells, 3,000 cells/well. The next day, compounds were diluted in DMEM containing 100 mg/ml gentamicin, from 10 mM stock solutions in DMSO. 30 microliters/well of these dilutions were added to the 30 microliters/well of media currently on the cell plates. Medium containing 0.6% DMSO was added to control wells. The final concentration of DMSO in all wells was 0.3%. Cells were incubated at 37° C., 5% CO2 for 3 days. Cell biomass was estimated using Celltiter Glo (Promega G7571). Briefly, plates were removed from the incubator and allowed to equilibrate to rt for 30 minutes. 60 microliters of Celltiter Glo reagent were added to each well of the treated cells and plates were shaken on an orbital plate shaker for 2 min. Plates were incubated without shaking for 30 more min and read in a luminometer with an integration time of 0.5 seconds per well. Percent inhibition of cell growth was calculated relative to vehicle treated control wells. Concentration of compound that inhibits 50% of vehicle control cell growth (IC50) was interpolated using nonlinear regression (Levenberg-Marquardt) and the equation, y=Vmax*(1−(x/(K+x)))+Y2, where “K” was equal to the IC50.
# Colo205 tumor cell lines = assay: as above; assay type: cell-based; conditions: Homo sapiens, COLO 205, 72 h, Table 3, Method B Celltiter Glo, 3 days
# Experimental: as §1
IC50 [1] [nM],IC50 (Colo205 tumor cell lines) [nM],SMILES,Activity (Method) (ErbB2 or EGFR)
100 to 1000,100 to 1000,"CN(C)Cc1cccc(Nc2nccc(-c3c(-c4ccc(F)c(NC(=O)Cc5cccs5)c4)nn4ccccc34)n2)c1 [Example 36, N-(5-{3-[2-({3-[(dimethylamino)methyl]phenyl}amino)-4-pyrimidinyl]pyrazolo[1,5-a]pyridin-2-yl}-2-fluorophenyl)-2-(2-thienyl)acetamide]",++ (B) (at least one pIC50 measurement greater than 6 against either ErbB2 or EGFR but no measurement greater than pIC50 of 7)
> 1000,> 1000,"CN1CCc2ccc(Nc3nccc(-c4c(-c5cccc(NC(=O)Cc6cccs6)c5)nn5cccc(F)c45)n3)cc2C1 [Example 30, N-[3-(4-fluoro-3-{2-[(2-methyl-1,2,3,4-tetrahydro-7-isoquinolinyl)amino]-4-pyrimidinyl}pyrazolo[1,5-a]pyridin-2-yl)phenyl]-2-(2-thienyl)acetamide]",++ (B) (at least one pIC50 measurement greater than 6 against either ErbB2 or EGFR but no measurement greater than pIC50 of 7)
100 to 1000,100 to 1000,"CN1CCc2ccc(Nc3ncc(F)c(-c4c(-c5cccc(NC(=O)c6c(F)cccc6F)c5)nn5ccccc45)n3)cc2C1 [Example 51, 2,6-Difluoro-N-[3-(3-{5-fluoro-2-[(2-methyl-1,2,3,4-tetrahydro-7-isoquinolinyl)amino]-4-pyrimidinyl}pyrazolo[1,5-a]pyridin-2-yl)phenyl]benzamide]",+++ (B) (at least one pIC50 measurement of greater than 7 against either ErbB2 or EGFR)
> 1000,> 1000,"CN1CCC(N(C)CCOc2cc(Nc3nccc(-c4c(-c5cccc(NC(=O)Cc6cccs6)c5)nn5ccccc45)n3)ccc2Cl)C1 (stereo not drawn) [Example 46, N-{3-[3-(2-{[4-Chloro-3-({2-[methyl(1-methyl-3-pyrrolidinyl)amino]-ethyl}oxy)phenyl]amino}-4-pyrimidinyl)pyrazolo[1,5-a]pyridin-2-yl]phenyl}-2-(2-thienyl)acetamide]",+++ (B) (at least one pIC50 measurement of greater than 7 against either ErbB2 or EGFR)
> 1000,100 to 1000,"Cc1ccc(OCCN(C)C)cc1Nc1nccc(-c2c(-c3ccc(F)c(NC(=O)Cc4cccs4)c3)nn3ccccc23)n1 [Example 62, N-[5-(3-{2-[(5-{[2-(Dimethylamino)ethyl]oxy}-2-methylphenyl)amino]-4-pyrimidinyl}pyrazolo[1,5-a]pyridin-2-yl)-2-fluorophenyl]-2-(2-thienyl)acetamide]",+ (B) (no pIC50 measurement greater than 6 against either ErbB2 or EGFR)
100 to 1000,100 to 1000,"O=C(Cc1ccsc1)Nc1cccc(-c2nn3ccccc3c2-c2ccnc(Nc3cccc(-c4cnco4)c3)n2)c1 [Example 17, N-{3-[3-(2-{[3-(1,3-Oxazol-5-yl)phenyl]amino}-4-pyrimidinyl)pyrazolo[1,5-a]pyridin-2-yl]phenyl}-2-(3-thienyl)acetamide]",+++ (B) (at least one pIC50 measurement of greater than 7 against either ErbB2 or EGFR)
100 to 1000,100 to 1000,"Cc1ccc(-c2nn3ccccc3c2-c2ccnc(Nc3cccc(OCCN(C)C)c3)n2)cc1NC(=O)Cc1cccs1 [Example 58, N-[5-(3-{2-[(3-{[2-(Dimethylamino)ethyl]oxy}phenyl)amino]-4-pyrimidinyl}pyrazolo[1,5-a]pyridin-2-yl)-2-methylphenyl]-2-(2-thienyl)acetamide]",++ (B) (at least one pIC50 measurement greater than 6 against either ErbB2 or EGFR but no measurement greater than pIC50 of 7)
100 to 1000,> 1000,"Cc1ccc(-c2nn3ccccc3c2-c2ccnc(Nc3ccc4c(c3)CN(C)CC4)n2)cc1NC(=O)Cc1cccs1 [Example 59, N-[2-Methyl-5-(3-{2-[(2-methyl-1,2,3,4-tetrahydro-7-isoquinolinyl)amino]-4-pyrimidinyl}pyrazolo[1,5-a]pyridin-2-yl)phenyl]-2-(2-thienyl)acetamide]",++ (B) (at least one pIC50 measurement greater than 6 against either ErbB2 or EGFR but no measurement greater than pIC50 of 7)
< 100,100 to 1000,"CN(C)C1Cc2ccc(Nc3nccc(-c4c(-c5ccc(F)c(NC(=O)Cc6cccs6)c5)nn5ccccc45)n3)cc2C1 (stereo not drawn) [Example 37, N-{5-[3-(2-{[2-(dimethylamino)-2,3-dihydro-1H-inden-5-yl]amino}-4-pyrimidinyl)pyrazolo[1,5-a]pyridin-2-yl]-2-fluorophenyl}-2-(2-thienyl)acetamide]",+++ (B) (at least one pIC50 measurement of greater than 7 against either ErbB2 or EGFR)
100 to 1000,100 to 1000,"CN(C)CCOc1cccc(Nc2nccc(-c3c(-c4cccc(NC(=O)Cc5cccs5)c4)nn4cc(F)ccc34)n2)c1 [Example 34, N-[3-(3-{2-[(3-{[2-(dimethylamino)ethyl]oxy}phenyl)amino]-4-pyrimidinyl}-6-fluoropyrazolo[1,5-a]pyridin-2-yl)phenyl]-2-(2-thienyl)acetamide]",+++ (B) (at least one pIC50 measurement of greater than 7 against either ErbB2 or EGFR)
> 1000,> 1000,"Cc1ccc(-c2nn3ccccc3c2-c2ccnc(Nc3cccc(CN4CCCC4)c3)n2)cc1NC(=O)Cc1cccs1 [Example 56, N-{2-Methyl-5-[3-(2-{[3-(1-pyrrolidinylmethyl)phenyl]amino}-4-pyrimidinyl)pyrazolo[1,5-a]pyridin-2-yl]phenyl}-2-(2-thienyl)acetamide]",++ (B) (at least one pIC50 measurement greater than 6 against either ErbB2 or EGFR but no measurement greater than pIC50 of 7)
100 to 1000,> 1000,"O=C(Cc1cccnc1)Nc1cccc(-c2nn3ccccc3c2-c2ccnc(Nc3cccc(-c4cnco4)c3)n2)c1 [Example 21, N-{3-[3-(2-{[3-(1,3-Oxazol-5-yl)phenyl]amino}-4-pyrimidinyl)pyrazolo[1,5-a]pyridin-2-yl]phenyl}-2-(3-pyridinyl)acetamide]",+++ (B) (at least one pIC50 measurement of greater than 7 against either ErbB2 or EGFR)
